Measured values: PMC12494553, “A unique gating mechanism revealed by the cryo-EM structure of monomeric ATP9A flippase” (The Journal of Biological Chemistry, 2025)

Target: T1, ATP9A (Homo sapiens, UniProt O75110)
T1 construct: N-terminal region before Pro38 deleted; N-terminal His6-EGFP tag cut off with HRV-3C; HEK293S GnT1- (BacMam); LMNG/GDN micelles; monomer, about 90 kDa
T1 sequence (O75110 38-1047): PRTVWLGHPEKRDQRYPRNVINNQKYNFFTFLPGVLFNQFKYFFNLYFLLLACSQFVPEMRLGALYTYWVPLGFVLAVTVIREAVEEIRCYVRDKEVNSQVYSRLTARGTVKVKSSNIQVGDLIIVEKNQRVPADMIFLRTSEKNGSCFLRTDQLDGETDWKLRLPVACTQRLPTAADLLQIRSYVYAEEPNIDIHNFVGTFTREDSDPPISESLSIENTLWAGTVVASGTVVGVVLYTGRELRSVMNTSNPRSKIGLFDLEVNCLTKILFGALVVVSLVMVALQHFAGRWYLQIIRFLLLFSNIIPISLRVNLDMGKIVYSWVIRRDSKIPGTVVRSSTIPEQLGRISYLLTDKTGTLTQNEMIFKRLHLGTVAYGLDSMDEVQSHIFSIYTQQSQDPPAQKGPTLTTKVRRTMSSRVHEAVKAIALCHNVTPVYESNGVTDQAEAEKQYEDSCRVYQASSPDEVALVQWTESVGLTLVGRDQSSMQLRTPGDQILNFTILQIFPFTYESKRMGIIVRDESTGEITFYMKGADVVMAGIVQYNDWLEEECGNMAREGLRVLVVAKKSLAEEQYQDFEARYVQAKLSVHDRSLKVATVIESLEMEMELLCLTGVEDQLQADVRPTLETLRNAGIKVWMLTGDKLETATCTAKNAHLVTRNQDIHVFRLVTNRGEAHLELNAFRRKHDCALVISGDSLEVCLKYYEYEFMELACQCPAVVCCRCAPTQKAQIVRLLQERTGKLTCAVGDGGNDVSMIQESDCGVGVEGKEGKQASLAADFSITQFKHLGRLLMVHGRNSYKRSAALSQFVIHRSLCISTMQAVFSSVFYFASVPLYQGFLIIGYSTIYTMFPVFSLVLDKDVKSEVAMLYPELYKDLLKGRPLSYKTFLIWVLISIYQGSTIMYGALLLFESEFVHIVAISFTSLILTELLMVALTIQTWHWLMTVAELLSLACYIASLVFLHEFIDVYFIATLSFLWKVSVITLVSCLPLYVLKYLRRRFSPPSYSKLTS
Assay: cryo-EM structure
Format: binding

In the case of [F][Be-]([F])[F] [BeF], the cryo-EM structure (phosphate analog bound at catalytic Asp391, E2P state, open (9VDK, 2.18 Å) and closed (9VDL, 2.31 Å) forms, made from 1 mM BeSO4 and 3 mM NaF, also used as ATPase blank) was “The phosphate analog BeF is bound to the catalytic Asp391”.
With CC(C)CCC[C@@H](C)[C@H]1CC[C@H]2[C@@H]3CC=C4C[C@@H](O)CC[C@]4(C)[C@H]3CC[C@]12C [CLR, cholesterol] the cryo-EM structure (open form, E2P BeF state, lipid modelled from density, not added, outside canonical phospholipid site) was “Bound phospholipids (PLs) and cholesterol (CLR) in the open form are indicated”.
